Source: ChEMBL document CHEMBL1201862, “PubChem BioAssay data set” (2004)
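Growth conditions: 96-well plates. Treatment: test compound, 48 hours, 5 concentrations. Analysis: linear interpolation between bracketing concentrations; unreached endpoints set to highest concentration. The concentration for 50% growth inhibition is given as GI50.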 Active and inactive are the calls of the source. Cut-off read from the data, not from the text of the source: active = GI50 up to about 1.1 µM and inactive = higher.

Assays:
Assay in all cases: growth of human tumour cells (NCI), 48 h
[1] = system: SK-MEL-2
[2] = system: 786-0
[3] = system: EKVX
[4] = system: SK-OV-3
[5] = system: DU-145
[6] = system: MDA-MB-435
[7] = system: T47D
[8] = system: SK-MEL-28
[9] = system: HT-29
[10] = system: SK-MEL-5
[11] = system: NCI/ADR-RES
[12] = system: NCI-H23
[13] = system: HOP-92
[14] = system: A549
[15] = system: U-251
[16] = system: UACC-62
[17] = system: BT-549
[18] = system: MDA-MB-231
[19] = system: UO-31
[20] = system: HCT-116
[21] = system: TK-10
[22] = system: HCT-15
[23] = system: HCC 2998
[24] = system: SN12C
[25] = system: Malme-3M
[26] = system: PC-3
[27] = system: UACC-257
[28] = system: NCI-H226
[29] = system: CCRF-CEM
[30] = system: OVCAR-5
[31] = system: M14
[32] = system: K562
[33] = system: COLO 205
[34] = system: SR
[35] = system: KM12
[36] = system: ACHN
[37] = system: Hs-578T
[38] = system: LOX IMVI
[39] = system: HL-60
[40] = system: MCF7
[41] = system: OVCAR-8
[42] = system: SF-539
[43] = system: SNB-75
[44] = system: SNB-19
[45] = system: NCI-H460
[46] = system: OVCAR-3
[47] = system: SF-268
[48] = system: MDA-N
[49] = system: SF-295
[50] = system: MOLT-4
[51] = system: NCI-H522
[52] = system: SW-620
[53] = system: HOP-62
[54] = system: RPMI-8226
[55] = system: A498
[56] = system: RXF 393
[57] = system: IGROV-1
[58] = system: CAKI-1
[59] = system: OVCAR-4

For `O=C1CS(=O)(=O)C(c2cccc(Oc3ccccc3)c2)N1c1cc(Cl)ccc1Cl` (stereo not given), the GI50 [1] was 14.4 µM (inactive), the GI50 [2] was 19.2 µM (inactive) and the GI50 [3] was 35.2 µM (inactive). For the same compound, the GI50 [4] was 24 µM (inactive), the GI50 [5] was 17.9 µM (inactive) and the GI50 [6] was 12.1 µM (inactive). The GI50 [7] was 15.6 µM (inactive), the GI50 [8] was 26.5 µM (inactive) and the GI50 [9] was 20 µM (inactive). For the same compound, the GI50 [10] was 15.8 µM (inactive), the GI50 [11] was 25.7 µM (inactive) and the GI50 [12] was 29.1 µM (inactive). The GI50 [13] was 18.2 µM (inactive), the GI50 [14] was 38.2 µM (inactive) and the GI50 [15] was 15.7 µM (inactive). For the same compound, the GI50 [16] was 15.5 µM (inactive), the GI50 [17] was 19 µM (inactive) and the GI50 [18] was 17.5 µM (inactive). The GI50 [19] was 20.1 µM (inactive), the GI50 [20] was 20.2 µM (inactive) and the GI50 [21] was 30.1 µM (inactive). The GI50 [22] was 24.9 µM, the GI50 [23] was 18.8 µM (inactive) and the GI50 [24] was 20.7 µM (inactive). The GI50 [25] was 47 µM (inactive), the GI50 [26] was 14.7 µM (inactive) and the GI50 [27] was 23.1 µM (inactive). The GI50 [28] was 19.2 µM (inactive), the GI50 [29] was 15.4 µM (inactive) and the GI50 [30] was 29.6 µM (inactive). The GI50 [31] was 20.4 µM (inactive), the GI50 [32] was 27.4 µM (inactive) and the GI50 [33] was 30.2 µM (inactive). The GI50 [34] was 16.8 µM (inactive), the GI50 [35] was 17.8 µM (inactive) and the GI50 [36] was 19.7 µM (inactive). The GI50 [37] was 33.3 µM (inactive), the GI50 [38] was 14 µM (inactive) and the GI50 [39] was 34.2 µM (inactive). The GI50 [40] was 16.1 µM (inactive), the GI50 [41] was 19.8 µM (inactive) and the GI50 [42] was 21 µM (inactive). The GI50 [43] was 14.6 µM (inactive), the GI50 [44] was 22.4 µM (inactive) and the GI50 [45] was 21.9 µM (inactive). For the same compound, the GI50 [46] was 19 µM (inactive), the GI50 [47] was 23.1 µM (inactive) and the GI50 [48] was 16.7 µM (inactive). The GI50 [49] was 22.9 µM (inactive), the GI50 [50] was 39.3 µM (inactive) and the GI50 [51] was 23.7 µM (inactive). For the same compound, the GI50 [52] was 34.4 µM (inactive).
With `CSc1nn(C)cc2nc(C)nc1-2` the GI50 [1] was > 100 µM (inactive), the GI50 [2] was > 100 µM (inactive) and the GI50 [3] was > 100 µM (inactive). The GI50 [53] was > 100 µM (inactive), the GI50 [5] was > 100 µM (inactive) and the GI50 [54] was > 100 µM (inactive). For the same compound, the GI50 [6] was > 100 µM (inactive), the GI50 [7] was > 100 µM (inactive) and the GI50 [8] was > 100 µM (inactive). For the same compound, the GI50 [9] was > 100 µM (inactive), the GI50 [10] was > 100 µM (inactive) and the GI50 [11] was > 100 µM (inactive). For the same compound, the GI50 [12] was > 100 µM (inactive), the GI50 [14] was > 100 µM (inactive) and the GI50 [15] was > 100 µM (inactive). The GI50 [16] was > 100 µM (inactive), the GI50 [17] was > 100 µM (inactive) and the GI50 [55] was > 100 µM (inactive). The GI50 [18] was > 100 µM (inactive), the GI50 [19] was > 100 µM (inactive) and the GI50 [20] was > 100 µM (inactive). For the same compound, the GI50 [21] was > 100 µM (inactive), the GI50 [22] was greater than 100 µM and the GI50 [24] was > 100 µM (inactive). The GI50 [26] was > 100 µM (inactive), the GI50 [27] was > 100 µM (inactive) and the GI50 [28] was > 100 µM (inactive). The GI50 [29] was > 100 µM (inactive), the GI50 [30] was > 100 µM (inactive) and the GI50 [56] was > 100 µM (inactive). The GI50 [31] was > 100 µM (inactive), the GI50 [32] was > 100 µM (inactive) and the GI50 [33] was > 100 µM (inactive). For the same compound, the GI50 [34] was > 100 µM (inactive), the GI50 [57] was > 100 µM (inactive) and the GI50 [35] was > 100 µM (inactive). The GI50 [36] was > 100 µM (inactive), the GI50 [37] was > 100 µM (inactive) and the GI50 [58] was > 100 µM (inactive). The GI50 [39] was > 100 µM (inactive), the GI50 [40] was > 100 µM (inactive) and the GI50 [41] was > 100 µM (inactive). For the same compound, the GI50 [42] was > 100 µM (inactive), the GI50 [43] was > 100 µM (inactive) and the GI50 [44] was > 100 µM (inactive). For the same compound, the GI50 [45] was > 100 µM (inactive), the GI50 [46] was > 100 µM (inactive) and the GI50 [47] was > 100 µM (inactive). The GI50 [48] was > 100 µM (inactive), the GI50 [49] was > 100 µM (inactive) and the GI50 [50] was > 100 µM (inactive). The GI50 [52] was > 100 µM (inactive).
In the case of `C[n+]1c2ccccc2n2c3ccccc3c(NCc3ccco3)c(C#N)c21`, the GI50 [1] was 2 µM (inactive), the GI50 [2] was 1.51 µM (inactive) and the GI50 [3] was 2.78 µM (inactive). For the same compound, the GI50 [4] was 3.85 µM (inactive), the GI50 [53] was 1.46 µM (inactive) and the GI50 [5] was 3.09 µM (inactive). The GI50 [54] was 0.546 µM (active), the GI50 [6] was 1.76 µM (inactive) and the GI50 [7] was 3.67 µM (inactive). The GI50 [8] was 1.99 µM (inactive), the GI50 [9] was 2.7 µM (inactive) and the GI50 [10] was 2.78 µM (inactive). For the same compound, the GI50 [11] was 2.2 µM (inactive), the GI50 [12] was 1.46 µM (inactive) and the GI50 [13] was 5.94 µM (inactive). The GI50 [14] was 3.15 µM (inactive), the GI50 [15] was 2 µM (inactive) and the GI50 [16] was 2.84 µM (inactive). For the same compound, the GI50 [17] was 18.5 µM (inactive), the GI50 [55] was 6.08 µM (inactive) and the GI50 [18] was 2.21 µM (inactive). The GI50 [19] was 1.22 µM (inactive), the GI50 [20] was 0.957 µM (active) and the GI50 [21] was 1.52 µM (inactive). The GI50 [22] was 1.05 µM, the GI50 [23] was 0.659 µM (active) and the GI50 [24] was 1.23 µM (inactive). For the same compound, the GI50 [25] was 2.43 µM (inactive), the GI50 [26] was 2.23 µM (inactive) and the GI50 [27] was 3.48 µM (inactive). The GI50 [28] was 2.23 µM (inactive), the GI50 [30] was 2.12 µM (inactive) and the GI50 [56] was 1.65 µM (inactive). The GI50 [31] was 2.3 µM (inactive), the GI50 [32] was 1.49 µM (inactive) and the GI50 [59] was 2.82 µM (inactive). The GI50 [33] was 1.67 µM (inactive), the GI50 [35] was 2.79 µM (inactive) and the GI50 [36] was 1.46 µM (inactive). For the same compound, the GI50 [37] was 2.96 µM (inactive), the GI50 [58] was 2.07 µM (inactive) and the GI50 [38] was 1.05 µM (active). The GI50 [39] was 3.17 µM (inactive), the GI50 [40] was 0.575 µM (active) and the GI50 [41] was 1.24 µM (inactive). The GI50 [42] was 0.959 µM (active), the GI50 [43] was 2.02 µM (inactive) and the GI50 [44] was 3.11 µM (inactive). For the same compound, the GI50 [45] was 1.1 µM (active), the GI50 [46] was 2.7 µM (inactive) and the GI50 [47] was 2.42 µM (inactive). For the same compound, the GI50 [48] was 1.96 µM (inactive), the GI50 [49] was 2.67 µM (inactive) and the GI50 [50] was 0.984 µM (active). For the same compound, the GI50 [51] was 0.678 µM (active) and the GI50 [52] was 0.64 µM (active).
